Experiments:
[1] = tested on: excised human nerve tissue (or nerve extracts); experiment: Phage display library screening (Example 2), NEB tissue-binding peptides: nerve tissue and nerve extracts versus muscle; conditions: unique sequence count, peptides not binding muscle extracts; for Count Excised Nerve: tissue target: excised nerve; for Count Nerve Extract: tissue target: nerve extract; for Count Neuron: tissue target: neuron
Description: (§1) Phage display library screens were used to identify peptides that bind to target proteins (including specific laminin trimers) that are expressed in human nerves, as described in Table 3. These screens were also carried out to identify peptides that could bind selectively to nerves versus muscle. Such peptides could therefore be useful for systemic in-vivo labeling of nerves during fluorescence assisted surgery. Specifically, m 13 phage libraries expressing 7 or 12 random amino acid peptides, or a cyclic peptide CX7C, on the N-terminus of the minor coat protein pIII (New England Biolabs; NEB) were processed through multiple rounds of selection for binding to target proteins expressed in nerves, or to excised human nerves, nerve extracts, or muscle, as described further below.
To identify peptides selective for nerves versus muscle, phage from the same libraries used for specific target proteins were used to screen against excised human nerve tissue (or nerve extracts) and human muscle tissue.
Excised Nerve Tissue: Phage were processed through multiple cycles of selection, with representative phage being isolated and sequenced after each selection cycle. Specifically, for selection using human nerve tissue, a sample of […] tissue (2 mm by 2 mm) was washed prior to mixing and incubation with a phage library. After incubation, the mixture (containing mostly intact nerves with phage particles that had variable affinity for nerves) was centrifuged and the nerve pellet washed multiple times with PBS to remove phage with little or no affinity for nerve tissue. The pellet was homogenized and plated for titering and reamplification. Phage that were bound at each round were sequenced. NextGen sequencing of pools after 2, 3 and 4 rounds of selection were used to isolate candidate sequences that were further analyzed using bioinformatics.
Nerve Extracts: Phage libraries were incubated for up to 24 hours at 4° C. in 96 well plates that had been coated with a human nerve extract. Plates were then washed with PBS and phage were eluted using 0.2M glycine pH 2.0. Phage supernatants where then neutralized with Tris pH 9.0 prior to plating on TG1 bacteria and LB agar plates. Colonies were counted to determine titer followed by DNA preparation of pools of phage and NextGen sequencing. After rounds of selection, phage were pooled and amplified for iterative selection. Phage that eluted by 0.2M glycine pH 2.0 (the nerve binders) at each round were sequenced. NextGen sequencing of pools after 2, 3 and 4 rounds of selection were used to isolate candidate sequences that were further analyzed using bioinformatics.
Muscle Tissue: Phage were processed through multiple cycles of selection, with representative phage being isolated and sequenced after each selection cycle. Specifically, for selection using human skeletal muscle tissue, a sample of skeletal muscle tissue (2 mm by 2 mm) was washed prior to mixing and incubation with a phage library. After incubation, the mixture (containing mostly intact muscle with phage particles that had variable affinity for muscle) was centrifuged and the muscle pellet washed multiple times with PBS to remove phage with little or no affinity for muscle tissue. The pellet was then homogenized and plated for titering and reamplification. Phage that were bound at each round were sequenced. NextGen sequencing of pools after 2, 3 and 4 rounds of selection were used to isolate candidate sequences that were further analyzed using bioinformatics.
For all NEB sequence datasets, a python script was used to translate, trim, and filter the peptide sequences (see details above). A python script was used to group peptides from different assays according to tissue target (muscle, nerve, neuron, or nerve extract) and combine the unique sequence counts for each peptide. […]

Laminin 421/521 = experiment: Phage display library screening (Example 2), NEB laminin-binding peptides; set-up: species or system human; conditions: Laminin 421/521, not 211 and 411; combined unique sequence count, Python/R script analysis
Description: as §1
For screening against the specified target proteins in Table 1, including LN211, LN411, LN421, and LN521, the phage library was processed by up to 4 binding and wash cycles. For selection, phage libraries were incubated for up to 24 hours at 4° C. in 96 well plates that had been coated with one of the target proteins. Plates were then washed with PBS and phage were eluted using 0.2M glycine pH 2.0. Phage supernatants where then neutralized with Tris pH 9.0 prior to plating on TGI bacteria and LB agar plates. Colonies were counted to determine titer followed by DNA preparation of pools of phage and NextGen sequencing. After rounds of selection, phage were pooled and amplified for iterative selection. Phage that were bound at each round were sequenced. NextGen sequencing of pools after 2, 3 and 4 rounds of selection was used to isolate candidate sequences that were analyzed further to identify those that specifically bound each unique target protein.
For all NEB sequence datasets, a python script was used to translate, trim, and filter the peptide sequences (see details above). A python script was used to group peptides from different assays according to laminin complex binding (laminin complex 211, 411, 421, or 521) and combine the unique sequence counts for each peptide. An R script was written to merge the peptide sequences from different data files and determine peptides that specifically bind one laminin complex and not the others, or that bind both laminin 421 and 521 but not 211 and 411.

| Substance | Count Excised Nerve [1] | Count Nerve Extract [1] | Count Neuron [1] | Count (Laminin 421/521) |
| --- | --- | --- | --- | --- |
| AFRFEFQVPDSH | 7 | 18 | 11 | – |
| AIMSYNSPWIQG | 9 | 17 | 8 | – |
| ALNHNGPVKTGL | 10 | 16 | 6 | – |
| DASQYPLVSGLW | 10 | 16 | 6 | – |
| DELVGGAPWYKS | 20 | 27 | 7 | – |
| DRGLTILTDDLR | 27 | 34 | 7 | – |
| DVMQMFHQVHFY | 10 | 17 | 7 | – |
| EESNAKLELLSR | 12 | 26 | 14 | – |
| EFARFRVFGVAE | 22 | 30 | 8 | – |
| EIIVMSGSNVTN | 9 | 15 | 6 | – |
| EMVPMKFLMMAK | 8 | 14 | 6 | – |
| EPWQSRDKVIEE | 8 | 16 | 8 | – |
| FDPLSRNVPHKT | 16 | 22 | 6 | – |
| GHAHSLTQNPLF | 10 | 18 | 8 | – |
| GLLREPDELMFL | 18 | 27 | 9 | – |
| GLTIMSSRHSLQ | 12 | 18 | 6 | – |
| GLWDGKGRIVEV | 9 | 16 | 7 | – |
| GMRTGDDSPKYP | 14 | 21 | 7 | – |
| GTALNLQKDINK | 6 | 12 | 6 | – |
| GTVSYMVKMDNN | 9 | 16 | 7 | – |

| Substance | Count Excised Nerve [1] | Count Nerve Extract [1] | Count Neuron [1] | Count (Laminin 421/521) |
| --- | --- | --- | --- | --- |
| GWANSITYRNLY | 17 | 26 | 9 | – |
| GWNEATNSARHT | 26 | 32 | 6 | – |
| GWQMFPPMQNTR | 10 | 50 | 40 | – |
| HGIVFSKRPFSN | 12 | 23 | 11 | – |
| WDLPTLRKTKQA (Laminin 421/521-binding peptide) | – | – | – | 114 |
| WEEHRVEILPDV (Laminin 421/521-binding peptide) | – | – | – | 38 |
| WGANTTGRTHGG (Laminin 421/521-binding peptide) | – | – | – | 40 |
| WGLKLPH (Laminin 421/521-binding peptide) | – | – | – | 117 |
| WGWNGANMSPRG (Laminin 421/521-binding peptide) | – | – | – | 31 |
| WNANYGTMTRHA (Laminin 421/521-binding peptide) | – | – | – | 92 |
| WPMMQTR (Laminin 421/521-binding peptide) | – | – | – | 29 |
| WPVRNLL (Laminin 421/521-binding peptide) | – | – | – | 67 |
| WQWRSTELGYRY (Laminin 421/521-binding peptide) | – | – | – | 36 |
| WRSPLTT (Laminin 421/521-binding peptide) | – | – | – | 30 |
| WSPANGWRHQTI (Laminin 421/521-binding peptide) | – | – | – | 36 |
| WTKHNTPAHHLS (Laminin 421/521-binding peptide) | – | – | – | 89 |
| WVAAERR (Laminin 421/521-binding peptide) | – | – | – | 115 |
| YHLGPNQKMRTS (Laminin 421/521-binding peptide) | – | – | – | 48 |
| YTPRNQL (Laminin 421/521-binding peptide) | – | – | – | 55 |
